Source: patent publication US10201559B2, “Compositions of selenoorganic compounds and methods of use thereof” (Alltech, Inc., priority 2014, dated 2019)

How the values were obtained:
IMR-32 cells = experiment: Quantitative analysis of mitochondrial potential in IMR-32 cells; type: cell-based, human; conditions: for enhanced MT potential compared with sulfur analogs: 24 hr
Description: Similar to the above studies on AML-12 cells, the mitochondrial potential per cell in living IMR-32 cells was determined using the Bio-TeK Synergy HT Multi-Mode fluorescence microplate reader with the following modifications. To improve the attachment of IMR-32 cells to culture dishes, cell culture plates were precoated with 0.1% gelatin (Sigma, St. Louis, Mo.). 2×10^4 cells per a 96-well were seeded on gelatinized 96-well plates for the above studies. To reduce the cell dislodgment, Mitotracker orange and Hoechst 33342 fluorescent dyes (diluted in culture media) were directly added to each well after vehicle- or compound-treatments. After dye incubation, cell culture media were carefully replaced with 1× PBS for the quantitation analysis of fluorescence on the microplate reader. Eight samples per each treatment were examined for the above analysis, and the experiments were repeated at least five times. Data are presented as mean±sem of eight samples.

AML-12 cells = experiment: Cell viability assay, AML-12; type: cell-based, mouse; conditions: 48 hr
Description: Cell viability in cultured cells was determined using Promega's CellTiter96® AQueous One Solution Cell Proliferation Assay kits, according to the Manufacturer's protocol. In brief, equal number of C2C12 (1×10^4 cells/well), AML-12 (1×10^4 cells/well) and IMR-32 (2×10^4 cells/well) were seeded on 96-well clear plates (VWR) and treated with vehicle or compounds for 24, […] and/or 72 hr. Then, cultured cells were incubated with AQueous One solution (100 ul/per well) at 37° C. for 1 hr, and the absorbance of OD490 nm in each sample was determined by the Bio-Tek microplate reader. Cell viability in culture cells were determined by the subtraction of OD490 nm in cultured cells with the OD490 nm in plain culture media (without seeding of cells). Eight samples per each treatment were examined for the above analysis. Data are presented as Mean±sem of eight samples.

PSEN = experiment: Real-time RT-PCR, PSEN in IMR-32 cells; type: cell-based, human; conditions: individual compound
Description: (§1) Human IMR-32 cells were seeded on gelatinized 6-well (6.5×10^5 cells/well) or 24-well (1.3×10^5 cells/well) plates, while mouse liver AML-12 cells were cultured on uncoated 6-well (3.33×10^5 cells/well) or 24-well (6.7×10^4 cells/well) plates. Cells were treated with vehicle (control) or various compounds for 6, 24 or 48 hr. Total RNA from these cells was using Trizol (Invitrogen) according to the Manufacturer's protocol, and then incubated with DNase I to remove any potential contaminated genomic DNA. Then RNA samples were subjected to real-time PCR analysis using the Applied-Bioscience's RT kit and predesigned Taqman probes (Invitrogen), as described previously (Lan et al EMBO J 2003). Three to six samples were analyzed in each treatment group. Data were normalized by Actin B (Actb) or Glyceraldehyde Phosphate Dehydrogenase (Gapdh) levels in each sample, and are presented as mean±sem of 3-6 samples.

Nicastrin = experiment: Real-time RT-PCR, Nicastrin in IMR-32 cells; type: cell-based, human
Description: as §1

Gsk3b = experiment: Real-time RT-PCR, Gsk3b in IMR-32 cells; type: cell-based, human
Description: as §1

pTau S400/T403/S404 = experiment: Western blot, pTau S400/T403/S404 in IMR-32 cells; type: cell-based, human; conditions: 150 ppb, 24 hr
Description: (§2) IMR-32 and AML12 cells were seeded on 6-well plates, and then treated with vehicle and various compounds for 6 and 24 hr, as described above. After treatments, cells were rinsed with ice-cold PBS, and lysed in the ice-cold RIPA buffer containing complete proteinase and phosphotase inhibitors (Themo-Fisher Scientific, Waltham, Mass.) on ice for 30 min. Cell lysates were collected using a cell scraper and transfer pipette, and then centrifuged at 12000 g for 30 min at 4° C. to remove the DNA pellet and obtain the protein extract. Protein levels in the supernatant of these cell lysates were determined using the Pierce Micro-BCA protein assay kit (Themo Scientific-Piece Biotechnology, Rockford, Ill.) according to the manufacturer's protocol.
(§3) For Western blot analysis, five micrograms of total proteins from vehicle- and compound(s)-treated cells were subjected to SDS-PAGE gel separation, and then transferred to PVDF membranes, as described previously (Reddy, Liu et al. 2008 Science). Membranes were blocked in a phosphate-buffered saline (PBS) containing 5% (w/v) of bovine serum albumin (Sigma, St. Louis, Mo.), and incubated with specific primary antibodies followed by the incubation with HRP-conjugated anti-mouse or anti-rabbit secondary antibodies (1:5000 dilution, Cell Signaling Inc.). All primary antibodies except G6PC (Santa Cruz), Actb (Li-COR, Lincoln, Nebr.), Elf2bε and pElf2bε (Abcam, Cambridge, Mass.) were purchased from Cell Signaling Inc. Positive signals on the membrane blots were detected using the Amersham's enhanced chemiluminescence Western Blotting Prime Detection reagents (GE healthcare Lifescience, Pittsburgh, Pa.). Images of these luminescence signals on the membrane blots were captured using the LI-COR Odyssey Fc Image system (Lincoln, Nebr.). […] Protein band densities in the Western blots were determined using the Li-COR Image studio software or NIH ImageJ software, and then normalized by Actb level in each sample. […]

total Tau = experiment: Western blot, total Tau in IMR-32 cells; type: cell-based, human; conditions: 150 ppb, 24 hr
Description: as §2, §3

pFOXO4 T28 = experiment: Western blot, pFOXO4 T28 in IMR-32 cells; type: cell-based, human; conditions: individual compound, 150 ppb
Description: as §2
(§4) For Western blot analysis, five micrograms of total proteins from vehicle- and compound(s)-treated cells were subjected to SDS-PAGE gel separation, and then transferred to PVDF membranes, as described previously (Reddy, Liu et al. 2008 Science). Membranes were blocked in a phosphate-buffered saline (PBS) containing 5% (w/v) of bovine serum albumin (Sigma, St. Louis, Mo.), and incubated with specific primary antibodies followed by the incubation with HRP-conjugated anti-mouse or anti-rabbit secondary antibodies (1:5000 dilution, Cell Signaling Inc.). All primary antibodies except G6PC (Santa Cruz), Actb (Li-COR, Lincoln, Nebr.), Elf2bε and pElf2bε (Abcam, Cambridge, Mass.) were purchased from Cell Signaling Inc. Positive signals on the membrane blots were detected using the Amersham's enhanced chemiluminescence Western Blotting Prime Detection reagents (GE healthcare Lifescience, Pittsburgh, Pa.). Images of these luminescence signals on the membrane blots were captured using the LI-COR Odyssey Fc Image system (Lincoln, Nebr.). The same membrane blot was striped and re-blotted with another antibody as described in the GE WB ECL-prime-detection protocol (GE healthcare Lifescience, Pittsburgh, Pa.). Protein band densities in the Western blots were determined using the Li-COR Image studio software or NIH ImageJ software, and then normalized by Actb level in each sample. Data are presented as mean±sem of three samples per each group.

total FOXO = experiment: Western blot, total FOXO in IMR-32 cells; type: cell-based, human; conditions: 150 ppb (of each compound)
Description: as §2, §3

pAKT [1] = experiment: Western blot, pAKT in IMR-32 cells; type: cell-based, human; conditions: 150 ppb
Description: as §2, §3

pAKT [2] = experiment: Western blot, pAKT in AML-12 cells; type: cell-based, mouse; conditions: for increased phosphorylation of AKT: individual compounds, 6 or 24 hr
Description: as §2, §4

pElf2be = experiment: Western blot, pElf2be S539 in AML-12 cells; type: cell-based, mouse; conditions: for increased phosphorylation of Elf2be: individual compounds, 6 or 24 hr
Description: as §2, §4

pFOXOs = experiment: Western blot, FOXO phosphorylation (pFOXOs) in AML-12 cells treated with individual compounds; type: cell-based, mouse; conditions: 150 ppb, 6 or 24 hr
Description: as §2, §3

[3] = continuous 48 hr single treatment

Structure (SMILES)	MT potential (IMR-32 cells; 6 hr, compared to control)	enhanced MT potential compared with sulfur analogs (IMR-32 cells)	MT potential (IMR-32 cells; [3])	cell viability (OD490 nm) (AML-12 cells)	PSEN mRNA expression (PSEN; 24 hr)	Nicastrin mRNA expression (Nicastrin; 24 hr)	Gsk3b mRNA expression (Gsk3b; 6 hr)	Gsk3b mRNA expression (Gsk3b; 24 hr)	phosphorylation of Tau at S400/T403/S404 (pTau S400/T403/S404)	total Tau protein level (total Tau)	decrease of pFoxo4 (pFOXO4 T28) levels (pFOXO4 T28; 6 hr)	decrease of pFoxo4 (pFOXO4 T28) levels (pFOXO4 T28; 24 hr)	total FOXO levels (total FOXO)	pAKT protein levels (pAKT [1])	increased phosphorylation of AKT (pAKT [2])	increased phosphorylation of Elf2be (pElf2be)	FOXO phosphorylation (increased pFOXOs) (pFOXOs)	enhanced MT potential compared with respective sulfur analog(s) (IMR-32 cells; 6 hr)	further results
C[Se]C[C@H]1O[C@@H](n2cnc3c(N)ncnc32)C(O)C1O (stereo in doubt) [compound C, 5′-Methylselenoadenosine]	a trend towards elevated MT potential	more pronounced	did not affect MT potential	no toxic effects	significantly reduced	significant decrease in Nicastrin mRNA expression	significantly decreased	trend of decreased Gsk3b mRNA expression	significantly inhibited the phosphorylation of Tau at S400/T403/S404	did not affect total Tau protein level	statistically significant	statistically significant	neither the CDE combination nor the individual C, D or E treatments brought about any change	not visibly decreased	did not observed the increased phosphorylation	did not observed the increased phosphorylation	did not increase FOXO phosphorylation		PSEN mRNA expression (PSEN; 6 hr): significantly reduced; Nicastrin mRNA expression (Nicastrin; 6 hr): trend towards reduced Nicastrin mRNA expression
Nc1ncnc2c1ncn2[C@@H]1O[C@H](C[Se]CC[C@@H](N)C(=O)O)C(O)C1O (stereo partly shown) [compound D, 5′-Selenoadenosyl homocysteine]	significantly enhanced MT potential	more pronounced	did not affect MT potential	no toxic effects	did not inhibit, but instead stimulated	did not inhibit, but instead stimulated	did not significantly inhibit Gsk3b mRNA expression	significant increase of Gsk3b mRNA expression	had no effect on Tau phosphorylation at all tested serine/threonine residues	had no effect	statistically significant		neither the CDE combination nor the individual C, D or E treatments brought about any change	not visibly decreased	did not observed the increased phosphorylation	did not observed the increased phosphorylation	did not increase FOXO phosphorylation	more pronounced	MT potential (IMR-32 cells; repeated treatments (24 hr + 24 hr), 15 and 150 ppb): significantly enhanced MT potential
C[Se]CC(NC(=O)CCC(N)C(=O)O)C(=O)O (stereo not shown) [compound E, gamma-glutamyl-methylseleno-cysteine]	significantly enhanced MT potential	more pronounced	did not affect MT potential	no toxic effects	did not inhibit, but instead stimulated	did not inhibit, but instead stimulated	did not significantly inhibit Gsk3b mRNA expression	significant increase of Gsk3b mRNA expression	significantly down-regulated	significantly down-regulated	statistically significant	statistically significant	neither the CDE combination nor the individual C, D or E treatments brought about any change	not visibly decreased	did not observed the increased phosphorylation	did not observed the increased phosphorylation	did not increase FOXO phosphorylation	more pronounced	MT potential (IMR-32 cells; repeated treatments (24 hr + 24 hr), 150 ppb): significantly enhanced MT potential; levels of pAKT (pAKT [2]; individual compound, 6 hr): slightly reduce; levels of pElf2bε S539 (pElf2be; individual compound, 6 hr): slightly reduce
